# Measured values from patent EP4306108A1, “5-AMINOLEVULINIC ACID, OR AN ESTER THEREOF FOR USE IN TREATMENT OF CANCER BASED ON THE INHIBITION OF LACTATE DEHYDROGENASE” (Theodossiou, Theodossis, priority 2022, dated 2024).
# Tests used:
# LN18 [1] = assay: Seahorse XFe96 metabolic assay (OCR/ECAR), in-situ injection of 5-ALA; type: cell-based, human; settings: LN18 cells; 5-ALA 500 - 1000 µM injected in situ; Figure 1
# Method: (§1) The cells used in the present examples were human glioblastoma multiforme (GBM) cell lines, purchased from the American Type Culture Collection (ATCC, Manassas, VA, USA). These cell lines were LN18 (ATCC®, CRL-2610™), U87 (ATCC®, HTB-14™), T98G (ATCC®, CRL-1690™) and M059K (ATCC®, CRL-2365™). All cells were grown in RPMI 1640 without phenol red, supplemented with 10% fetal bovine serum (FBS) and penicillin/streptomycin at 37 °C in a 5% CO2 and 95% humidified atmosphere.
# (§2) In order to study the changes in cell metabolism in GBM cells following the in-situ addition of 5-ALA, the Seahorse XFe96 analyzer (Agilent Technologies) was employed. Briefly, 4×10^4 cells were seeded in a seahorse plate and incubated overnight in complete RPMI 1640 medium at 37 °C, and a 5% CO2 humidified atmosphere. One hour prior to the experiments, the cells had their media changed to unbuffered XF RPMI pH 7.4 medium supplemented with 10 mM glucose, 2 mM L-glutamine, and 2 mM sodium pyruvate and were incubated for one hour at 37 °C, 0% CO2 atmosphere. The basal oxygen consumption and media acidification rates (OCR and ECAR respectively) of the cell groups were measured in four cycles. After those four cycles injections of i) 5-ALA (500 - 1000 µM), ii) Oligomycin A (OLIGO) 1 µM, iii) Carbonyl cyanide 4-(trifluoromethoxy)phenylhydrazone (FCCP) 1 µM and iv) Antimycin A (ANTI A) and Rotenone (ROT) 2 µM each were sequentially performed for 3 measurement cycles each.
# MO59K = assay: as above; type: cell-based, human; settings: MO59K cells; 5-ALA 500 - 1000 µM injected in situ; Figure 1
# Method: as §1, §2
# T98G [2] = assay: as above; type: cell-based, human; settings: T98G cells; 5-ALA 500 - 1000 µM injected in situ; Figure 1
# Method: as §1, §2
# U87 [3] = assay: as above; type: cell-based, human; settings: U87 cells; 5-ALA 500 - 1000 µM injected in situ; Figure 1
# Method: as §1, §2
# LN18 [4] = assay: Seahorse XF Real-Time ATP Rate Assay; type: cell-based, human; settings: LN18 cells; 1000µM of 5-ALA; change versus control
# Method: as §1, §2
# (§3) The ATP contributions of mitochondrial respiration and cell glycolysis in U87, T98G, M059K and LN18 human GBM cells in the presence or absence of 5-ALA, were deconvoluted quantified by use of the Seahorse XF Real-Time ATP Rate Assay Kit. In brief the same protocol as in Example 1 was followed without the injection of FCCP and with only three basal measurement cycles, while the corresponding final concentrations of OLIGO and ROT/ANTI A were this time 1.5 and 0.5 µM. The ATP rates were determined with use of the Agilent Seahorse XF Real-Time ATP Rate Assay Report Generator.
# (§4) The wells in the bottom row of the seahorse plates were in all cases left devoid of cells and were used as blank values. These were automatically subtracted by the Seahorse analyser software.
# (§5) The changes in ATP production from either respiration or glycolysis were evaluated upon addition of 1000µM of 5-ALA.
# M059K = assay: Seahorse XF Real-Time ATP Rate Assay; type: cell-based, human; settings: M059K cells; 1000µM of 5-ALA; change versus control
# Method: as §1, §2, §3, §4, §5
# T98G [5] = assay: Seahorse XF Real-Time ATP Rate Assay; type: cell-based, human; settings: T98G cells; 1000µM of 5-ALA; change versus control
# Method: as §1, §2, §3, §4, §5
# U87 [6] = assay: Seahorse XF Real-Time ATP Rate Assay; type: cell-based, human; settings: U87 cells, 1000µM of 5-ALA, change versus control
# Method: as §1, §2, §3, §4, §5
# [7] = tested on: LDH present in cell lysates, Ln18; assay: Spectrophotometric LDH kinetics (NADH absorbance at 340 nm), cell lysates; type: biochemical, human; settings: 0.75 mM 5-ALA, no inhibitor: -1.48
# Method: as §1
# (§6) A. enzyme solutions. 0.5 mL of an aqueous LDH solution was mixed with 0.5 mL reaction buffer to start the LDH reduction of pyruvate. The final LDH concentration was always 5 µM.
# [8] = tested on: LDH present in cell lysates, U87; assay: as above; type: biochemical, human; settings: 0.75 mM 5-ALA, no inhibitor: -1.43
# Method: as §1, §6
# [9] = tested on: LDH present in cell lysates, M059K; assay: as above; type: biochemical, human; settings: 0.75 mM 5-ALA, no inhibitor: -1.47
# Method: as §1
# as §6, with “µM. […] The final concentration of 5-ALA in the total volume of the reaction mix (1 mL) was 5 mM for 5-ALA. In the enzymatic assays LDH refers to the LDH-A isoform.” for “µM.”
# (§7) In the second phase of the experiments, the enzymatic activity of LDH present in cell lysates was investigated.
# (§8) Cell lysates were obtained from LN18, T98G, U87 and M059K GBM cells. In brief, cells from confluent T175 flasks were harvested with the use of TrypLE™ Express Enzyme (Gibco, REF# 12604021) and resuspended in ddH2O with Triton™ X-100 (0,25%). The cell lysate measurements were performed according to the enzymatic solution measurents, however in this case, cell lysates equivalent to […] were each time added to the H2O half of the reaction mix. […]
# [10] = tested on: LDH present in cell lysates, T98G; assay: as above; type: biochemical, human; settings: 0.75 mM 5-ALA, no inhibitor: -1.20
# Method: as §1
# as §6, with “µM. […] The final concentration of 5-ALA in the total volume of the reaction mix (1 mL) was 5 mM for 5-ALA. In the enzymatic assays LDH refers to the LDH-A isoform.” for “µM.”
# as §7, §8
# LN18 [11] = assay: MTT cell viability assay; type: cell-based, human; settings: LN18 cells
# Method: as §1
# (§9) The cells were incubated with 5, 10 and 20 mM 5-ALA for three days and each day the effect of 5-ALA on their viability was assessed by standard MTT assays at 24, 48 and 72h following incubation. The results are shown in Figure 5 (Error bars represent one SD).
# T98G [12] = assay: MTT cell viability assay; type: cell-based, human; settings: T98G cells; 10mM 5-ALA; after 72h incubation
# Method: as §1, §9
# U87 [13] = assay: MTT cell viability assay; type: cell-based, human; settings: U87 cells
# Method: as §1, §9
# LDH-A isoform = LDH-A isoform (Homo sapiens, UniProt P00338); assay: Spectrophotometric LDH kinetics (NADH absorbance at 340 nm), enzyme solution
# [14] = 10mM 5-ALA, all time points (24, 48 and 72h)
# [15] = 20 mM 5-ALA, compared with the 90-98% reduction at 10mM
smiles,measurement,setting,value
"NCC(=O)CCC(=O)O [5-ALA, 5-Aminolevulinic acid]",glycolytic activity,LN18 [1],drop in the glycolytic activity of those cell lines which was dose dependent
same,glycolytic activity,MO59K,drop in the glycolytic activity of those cell lines which was dose dependent
same,glycolytic activity,T98G [2],drop in the glycolytic activity of those cell lines which was dose dependent
same,glycolytic activity,U87 [3],drop in the glycolytic activity of those cell lines which was dose dependent
same,reduction in glycolytic ATP production,LN18 [4],~-140 pmol/min
same,reduction in glycolytic ATP production,M059K,~ -250 pmole/min
same,reduction in glycolytic ATP production,T98G [5],~-200 pmol/min
same,reduction in glycolytic ATP production,U87 [6],~-200 pmol/min
same,increase in mitochondrial respiration-derived ATP,U87 [6]; marginally significant,~ 100 pmole/min
same,initial slope of NADH absorbance curve (LDH Vmax for the cell lysate volume studied),[7],-0.47
same,initial slope of NADH absorbance curve (LDH Vmax for the cell lysate volume studied),[8],-0.32
same,initial slope of NADH absorbance curve (LDH Vmax for the cell lysate volume studied),[9],-0.53
same,initial slope of NADH absorbance curve (LDH Vmax for the cell lysate volume studied),[10],-0.57
same,reduction in cell viability,LN18 [11]; [14],90-98%
same,reduction in cell viability,LN18 [11]; [15],"in general, maintained"
same,lethality level reached (cell viability),T98G [12],LD40
same,reduction in cell viability,U87 [13]; [14],90-98%
same,reduction in cell viability,U87 [13]; [15],"in general, maintained"
same,initial slope of NADH absorbance curve (corresponds to Vmax of the enzyme),"LDH-A isoform; Enzyme solution, 5 mM 5-ALA, first 5 data points (8 sec), pH 6.5, no inhibitor: -2.28",-0.51
same,activity at 5000 µM,LDH-A isoform; read-out: enzyme function as % of its Vmax,~22%
